Measurements from PubChem BioAssay (NCI).
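Exposure lasted 48 hours, with cells grown in 96-well plates and compounds tested at five concentrations. The concentration for 50% growth inhibition is given as GI50. TGI denotes the concentration required for complete inhibition of growth.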

Tested on: MDA-MB-468 breast
Experiment: DTP human tumour cell line panel, 48 h

Compound	GI50 [nM]	TGI [µM]
COc1ccc(C(O)c2cc3c(N)c(C(=O)Nc4ccc(Cl)cc4)sc3nc2C)cc1 (stereo unspecified)	1940	8.87
CC(C)(C)c1cc(C(=O)Nc2ccccc2C(=O)NCCN)cc(C(C)(C)C)c1	2010	3.59
COc1cc2oc(-c3cccc(C(=O)Nc4ccc(Cl)cc4)c3)cc(=O)c2c(OC)c1OC	3640	85.7
c1ccc(-c2oc(-c3ccccc3)c(CN3CCCCC3)c2CN2CCCCC2)cc1	1450	3.98
O=C1CC(c2c[nH]c3ccc(F)cc23)C(=O)N1 (stereo unspecified)	> 100000	> 100
CCN1CCN(c2nc(C)cc(N(CCCNc3ccnc4cc(Cl)ccc34)Cc3ccc4c(c3)OCO4)n2)CC1	1920	4.93
O=C1Nc2ccc(Cl)cc2/C1=C\c1c(-c2ccc(Cl)cc2)nc2sc(C3CC3)nn12	6680	21.2
CC(C)=CCc1cc2c(cc1O)C1=C(C(=O)C3=C(C1=O)S(=O)(=O)CCN3)C(C=C(C)C)O2 (stereo unspecified)	540	2.59
c1cc(N[C@@H]2CCNC2)nc(-c2cnc3ccc(-c4cn[nH]c4)cn23)c1	957	2.52
CC1CC2C3CCC4=CC(=O)C=CC4(C)C3(F)C(O)CC2(C)C1(O)C(=O)COP(=O)(O)O (stereo unspecified)	> 500000	> 500
CCOCC1(COCC)CCC(c2[nH]ncc2CN(C)CCNC)CC1	46600	> 100
CN(C)c1ccc(/C=C\c2ccnc3ccccc23)cc1	233	0.564
CO[C@H]1C[C@@H]2CC[C@@H](C)[C@@](O)(O2)C(=O)C(=O)N2CCCC[C@H]2C(=O)O[C@H]([C@H](C)C[C@@H]2CC[C@@H](OC(=O)C(C)(CO)CO)[C@H](OC)C2)CC(=O)[C@H](C)/C=C(\C)[C@@H](O)[C@@H](OC)C(=O)[C@H](C)C[C@H](C)\C=C/C=C/C=C/1C	1.89	> 10
Oc1ccc(Cl)cc1C(c1cc(Cl)ccc1O)C(Cl)(Cl)Cl	2580	8.11
COc1cc2c(c(OC)c1OC)-c1ccc(NN(C(=O)c3ccccc3)C(=O)c3ccccc3)c(=O)cc1[C@@H](NC(C)=O)CC2 (tested in a mixture with another compound)	2080	6.71
COc1cc2cc(Oc3ccc(NC(=O)Nc4cc(C(F)(F)F)cc(C(F)(F)F)c4)cc3)c(C)nc2cc1OCCN1CCOCC1	1220	3.76
NCCN1CCN(c2nc(-c3ccccc3)nc3nc(-c4ccccc4)oc23)CC1	1630	3.2
O=C1NC(=S)S/C1=C\c1cn(-c2ccccc2)nc1-c1ccccc1	6830	39.9
C#Cc1cccc(Nc2ncnc3cc(NC(=O)CCl)ccc23)c1	716	3.16
COc1cc(/C=C2\C(=O)N(Cc3ccc(Cl)cc3)c3ccccc32)cc(OC)c1OC	2660	8.06
O=C(Nc1ccc(Oc2ccc(F)cc2)cc1)[C@@H]1C[C@@H](Cc2ccc(F)cc2)CN1C(=O)Cn1ccnn1	4500	29
Clc1nccc2c(-c3csc(-c4c[nH]c5ccc(Br)cc45)n3)c[nH]c12	1180	3.81
COc1cc(-c2cc(/C=C/C(=O)c3ccc(F)c(F)c3)[nH]n2)cc(OC)c1OC	2270	9.47

Compound	GI50 [nM]	TGI [µM]
C=C1C(=O)O[C@H]2[C@H]1CC/C(COC(=O)c1cc(OC)c(OC)c(OC)c1)=C\CC[C@@]1(C)O[C@@H]21	344	2.02
O=C1Nc2ccc(Br)cc2C12CC(c1ccccc1)=NN2 (stereo unspecified)	3040	41.8
COc1cc(/C=C/C(=O)c2cccc(-n3cc(-c4cc(OC)c(OC)c(OC)c4)[nH]c3=O)c2)cc(OC)c1OC	1570	3.25
CCOC(=O)[C@@H](C)C[C@H](Cc1ccccc1)NC(=O)c1csc([C@@H](C[C@H](C(C)C)N(C)C(=O)[C@@H](NC(=O)[C@H]2CCCCN2C)C(C)(C)CC)OC(C)=O)n1	< 1.67	
CN1CCN(CC(=O)N(C)c2ccc(N=C(c3ccccc3)c3c(O)[nH]c4ccc(C#N)cc34)cc2)CC1	10700	24.1
CCCCN(CCCC)C(=O)[C@H](CC)[C@@H]1CC[C@@H](C)[C@@H]([C@H](C)[C@@H](O)[C@@H](C)C(=O)[C@H](CC)C2O[C@]3(C=C[C@@H](O)[C@]4(CC[C@@](C)([C@H]5CC[C@](O)(CC)[C@H](C)O5)O4)O3)[C@H](C)C[C@@H]2C)O1 (stereo partly specified)	1470	3.89
O=C1/C(=C/c2ccc(Cl)c(Cl)c2)CN(C(=O)C(Cl)Cl)C/C1=C\c1ccc(Cl)c(Cl)c1	177	0.398
COc1ccc(-c2cc(-c3ccc(Nc4nc(Nc5ccccc5)nc(Nc5ccc(Cl)cc5)n4)cc3)nc(N)n2)cc1	10200	34.2
COc1cc2c(c(OC)c1OC)-c1ccc(SC)c(=O)cc1[C@@H](N)CC2	78.6	> 100
CC(=O)Nc1ccc(C(=O)CCl)cc1	1810	4.52
COc1cc(CNCCCCCCN2C(=O)c3cccc4cccc(c34)C2=O)ccc1O	2780	9.33
COc1ccc2c(c1)OC(N)=C(C#N)C2c1cc(OC)c(OC)c(OC)c1 (stereo unspecified)	23.9	0.0688
Fc1ccc(-c2cc3nc(C(Cl)Cl)nc(-c4ccc(Cl)cc4)n3n2)cc1	1730	4.12
O=C1NC(=NCc2ccccc2Cl)S/C1=C\c1ccc2ncccc2c1	3610	> 25
O=C1NC(=NCCc2ccc(F)cc2)S/C1=C\c1ccc2ncccc2c1	> 20900	> 25
CN=C(N)c1ccc(N=C(N)c2ccc(-c3ccc(C(N)=Nc4ccc(C(N)=NC)cc4)cc3)cc2)cc1	74400	> 100
COc1cnc2c(c1)C(=O)c1c-2n(CCCNC2=NCCS2)c(=O)c2cc(F)ccc12	190	2.02
CSC1=NC(=Nc2c(C)cccc2C)C2(CCC(C(C)(C)C)CC2)N1c1ccc(Cl)cc1 (stereo unspecified)	4830	> 100
COC1(CC[C@@H](C)COC2OC(CO)C(O)C(O)C2O)O[C@H]2C[C@H]3[C@@H]4CC=C5C[C@@H](OC6OC(CO)C(OC7OC(C)C(O)C(O)C7O)C(O)C6OC6OC(C)C(O)C(O)C6O)CC[C@]5(C)[C@H]4CC[C@]3(C)[C@H]2[C@@H]1C (stereo partly specified)	1380	3.01
N#CCn1c(=O)c(Oc2ccc(F)cc2F)cc2cnc(NC3CCOCC3)nc21	> 18900	> 25
COc1ccc2nc3cc(Cl)ccc3c(NCCCNCCO)c2c1	454	1.89
O=C(Nc1ccc(Oc2ccc3nc(NC(=O)c4ccco4)[nH]c3c2)cc1)Nc1cc(C(F)(F)F)ccc1F	1370	11.5
NS(=O)(=O)c1ccc(Nc2cc(-c3ccc(O)c(F)c3)[nH]n2)cc1	10500	> 25
